# Measurements as given in article PMC8311653, “Design, Synthesis, In Vitro and In Vivo Characterization of Selective NKCC1 Inhibitors for the Treatment of Core Symptoms in Down Syndrome” (Journal of Medicinal Chemistry, 2021).
# Molecular target: T1, NKCC2 (Homo sapiens, UniProt Q13621)
# T1 construct: host or cells: HEK293
# T1 sequence (Q13621 1-1099): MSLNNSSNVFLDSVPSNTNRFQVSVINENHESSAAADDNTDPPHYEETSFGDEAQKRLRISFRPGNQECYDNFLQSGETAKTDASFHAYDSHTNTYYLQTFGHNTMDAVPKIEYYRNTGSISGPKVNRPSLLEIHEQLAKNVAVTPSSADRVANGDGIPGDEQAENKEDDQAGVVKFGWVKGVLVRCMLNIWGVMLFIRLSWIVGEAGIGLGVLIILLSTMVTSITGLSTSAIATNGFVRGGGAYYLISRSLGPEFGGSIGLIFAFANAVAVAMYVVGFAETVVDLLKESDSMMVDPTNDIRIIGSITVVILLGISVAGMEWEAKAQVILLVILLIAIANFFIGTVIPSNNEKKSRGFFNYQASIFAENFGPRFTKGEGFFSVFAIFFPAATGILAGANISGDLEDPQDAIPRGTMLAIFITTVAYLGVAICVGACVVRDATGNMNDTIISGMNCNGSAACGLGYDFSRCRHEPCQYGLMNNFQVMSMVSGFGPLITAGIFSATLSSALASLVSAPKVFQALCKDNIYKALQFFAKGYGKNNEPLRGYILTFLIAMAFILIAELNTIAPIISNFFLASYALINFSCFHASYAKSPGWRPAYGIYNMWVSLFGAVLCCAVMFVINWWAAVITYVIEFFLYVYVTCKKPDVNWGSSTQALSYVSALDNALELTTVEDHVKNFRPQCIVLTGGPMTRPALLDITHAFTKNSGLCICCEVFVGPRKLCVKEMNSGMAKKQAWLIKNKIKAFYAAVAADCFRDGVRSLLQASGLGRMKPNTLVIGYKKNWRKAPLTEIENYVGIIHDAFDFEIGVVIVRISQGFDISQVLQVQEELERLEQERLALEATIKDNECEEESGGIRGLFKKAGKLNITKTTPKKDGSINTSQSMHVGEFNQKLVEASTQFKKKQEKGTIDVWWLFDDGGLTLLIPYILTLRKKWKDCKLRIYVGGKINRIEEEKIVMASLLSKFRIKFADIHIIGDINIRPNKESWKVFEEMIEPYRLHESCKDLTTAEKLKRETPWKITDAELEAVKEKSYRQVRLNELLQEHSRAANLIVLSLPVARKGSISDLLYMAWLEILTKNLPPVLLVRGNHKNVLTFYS
# Test: Cl- influx assay in NKCC2-transfected HEK293 cells
# Format: cell-based
# Details: 10 μM
# Protocol: HEK293 cells were cultured in Dulbecco’s modified Eagle’s medium (DMEM) supplemented with 10% fetal bovine serum, 1% L-glutamine, 100 U/mL penicillin, and 100 μg/mL streptomycin and maintained at 37 °C in a 5% CO2 humidified atmosphere. […] To assess KCC2 activity (Tl influx assay), cells were transfected with 8 μg of KCC2[54] subcloned in the PRK5 plasmid or mock control (empty vector) and 16 μL of Lipofectamin 2000. After 4 h, the cells were collected and plated in 96-well black-walled, clear-bottomed plates at a density of 2.5 × 10^4. After 48 h, cells were used for the Cl^– or Tl influx assays. All reagents were purchased from Life Technologies, unless otherwise specified.
# After 30 min of incubation, plates were loaded into a Victor 3V (PerkinElmer) multiplate reader equipped with an automatic liquid injector system, and fluorescence of Cl^–-sensitive mbYFPQS was recorded with excitation at 485 nm and emission at 535 nm. For each well, fluorescence was first recorded for 20 s of the baseline and for 60 s after delivery of a NaCl concentrated solution (74 mM final concentration in the assay well). Fluorescence of Cl^–-sensitive mbYFPQS is inversely correlated to the intracellular Cl^– concentration;[53] therefore, chloride influx into the cells determined a decrease in mbYFPQS fluorescence. […]
smiles,measurement,value
"CN(C)S(=O)(=O)c1cc(C(=O)O)c(O)cc1NCCCCCCCC(F)(F)F [Compound 40, 5-(N,N-Dimethylsulfamoyl)-2-hydroxy-4-((8,8,8-trifluorooctyl)amino)benzoic Acid]",inhibition of NKCC2 in the Cl- influx assay,did not show any significant inhibition
